In brackets after ≈: the same amount, converted by molar mass. Marks after values point to notes of the source that are not given here.
Tests used:
EGFR = EGFR (Homo sapiens, UniProt P00533); details: vendor data; cited from earlier work
VEGFR2 [1] = target: T1, VEGFR2 (Homo sapiens, UniProt P35968); test: VEGFR2 IC50 values obtained from Selleckchem, Tocris Bioscience and TargetMol; assay type: biochemical; details: ratio of vendor IC50 values
VEGFR2 [2] = test: PamChip kinase activity profiling in cornea tissue lysates; design: VEGFR2 inhibition, Cornea: dose or concentration left out as unconfirmed; details: rabbit cornea lysate
VEGFR2 [3] = test: PamChip kinase activity profiling in retina tissue lysates; design: VEGFR2 inhibition, Retina: dose or concentration left out as unconfirmed; details: rabbit retina lysate
[4] = 7 days
[5] = Stability of orantinib in an autoclave; assay type: physicochemical
Description: Each vial was then split up into 2 vials. One vial of each set was autoclaved and all samples analyzed by HPLC.

[6] = Phase solubility screening of orantinib with gamma-cyclodextrin at pH 6; assay type: physicochemical; details: 22.5 °C, thermodynamic from solid
Experimental: Phase solubility screening with gamma-cyclodextrin at pH 6. […] The suspensions formed were autoclaved for 15 minutes at 121° C.

[7] = cited from earlier work
[8] = cited from earlier work; for solubility in pure water: 25° C.
[9] = target: VEGFR2 (C-terminal fragment, amino acids D807-V1356) (Homo sapiens, UniProt P35968)
VEGFR2 (C-terminal fragment, amino acids D807-V1356), sequence (P35968 807-1356): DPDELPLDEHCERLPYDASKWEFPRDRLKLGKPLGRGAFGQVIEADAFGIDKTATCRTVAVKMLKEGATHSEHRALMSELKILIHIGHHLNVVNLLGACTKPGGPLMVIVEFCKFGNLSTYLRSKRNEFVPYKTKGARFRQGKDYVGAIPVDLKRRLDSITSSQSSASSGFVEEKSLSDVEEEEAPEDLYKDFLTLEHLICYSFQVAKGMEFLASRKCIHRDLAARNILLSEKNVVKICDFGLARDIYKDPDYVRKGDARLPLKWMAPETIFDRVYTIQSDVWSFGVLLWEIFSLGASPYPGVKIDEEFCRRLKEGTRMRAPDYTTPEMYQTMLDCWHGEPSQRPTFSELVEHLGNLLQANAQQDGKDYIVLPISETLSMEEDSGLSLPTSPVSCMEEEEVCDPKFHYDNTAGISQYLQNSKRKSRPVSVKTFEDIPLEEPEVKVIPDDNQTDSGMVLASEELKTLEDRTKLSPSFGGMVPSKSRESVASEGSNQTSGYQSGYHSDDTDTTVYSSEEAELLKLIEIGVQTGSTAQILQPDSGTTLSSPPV

[10] = Dissolution test of eye drop formulations in water; assay type: physicochemical; details: formulation AF1, 450 times dilution in water, maximum at about 10 minutes
Experimental: In order to keep high concentrations of dissolved kinase inhibitors in the aqueous tear fluid the dissolution of the kinase inhibitor must proceed very quickly upon media dilution. The test formulation was above DF3 and the reference formulation was AF1 comprising acrizanib (Table 4 below). A dissolution test was performed by direct adding of a formulation aliquot into defined volume of water under constant stirring speed. The formulation/water ratio (final dilution) selection was based on the quantification limit of the used HPLC method and on the acrizanib solubility. The final dilution of 450 times was selected. At certain time after adding the formulation to water a sample of about 1 ml was taken from a stirring media, filtered through 0.45 µm filter and transferred to an HPLC vial for analysis.

[11] = Solid and dissolved drug fraction and particle size of eye drop microsuspensions; assay type: physicochemical
[12] = Experimental aqueous solubility; assay type: physicochemical
Description: Further improvement of the complexation efficacy is obtained by addition of EDTA and polymers like tyloxapol.

[13] = Solubility of axitinib free base with various acids and γ-cyclodextrin
[14] = target: T2, EGFR (C-terminal fragment, amino acids H672-A1210) (Homo sapiens, UniProt P00533); test: PamChip tyrosine kinase peptide array assay, recombinant EGFR; assay type: biochemical
T2 construct: EGFR (C-terminal fragment, amino acids H672-A1210); purchased Proqinase (Freiburg Germany)
T2 sequence (P00533 672-1210): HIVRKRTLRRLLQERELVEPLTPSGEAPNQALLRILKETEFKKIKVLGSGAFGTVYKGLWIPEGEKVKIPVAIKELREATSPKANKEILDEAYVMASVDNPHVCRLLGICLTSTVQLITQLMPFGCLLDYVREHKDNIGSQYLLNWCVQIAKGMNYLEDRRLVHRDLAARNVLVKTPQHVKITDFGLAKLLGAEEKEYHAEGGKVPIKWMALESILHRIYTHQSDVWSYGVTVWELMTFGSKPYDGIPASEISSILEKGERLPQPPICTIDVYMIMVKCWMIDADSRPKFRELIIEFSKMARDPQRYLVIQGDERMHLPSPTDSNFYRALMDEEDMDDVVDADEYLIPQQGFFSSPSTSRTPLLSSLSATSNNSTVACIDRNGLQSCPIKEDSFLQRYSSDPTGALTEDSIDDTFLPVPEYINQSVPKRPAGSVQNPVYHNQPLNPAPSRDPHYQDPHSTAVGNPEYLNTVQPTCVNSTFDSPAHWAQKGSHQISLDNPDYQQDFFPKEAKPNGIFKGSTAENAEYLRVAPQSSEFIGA

VEGFR2 [15] = target: T1, VEGFR2; details: vendor data; cited from earlier work
[16] = γ-cyclodextrin eye drop formulations

T1 sequence (P35968 20-1356, species assumed): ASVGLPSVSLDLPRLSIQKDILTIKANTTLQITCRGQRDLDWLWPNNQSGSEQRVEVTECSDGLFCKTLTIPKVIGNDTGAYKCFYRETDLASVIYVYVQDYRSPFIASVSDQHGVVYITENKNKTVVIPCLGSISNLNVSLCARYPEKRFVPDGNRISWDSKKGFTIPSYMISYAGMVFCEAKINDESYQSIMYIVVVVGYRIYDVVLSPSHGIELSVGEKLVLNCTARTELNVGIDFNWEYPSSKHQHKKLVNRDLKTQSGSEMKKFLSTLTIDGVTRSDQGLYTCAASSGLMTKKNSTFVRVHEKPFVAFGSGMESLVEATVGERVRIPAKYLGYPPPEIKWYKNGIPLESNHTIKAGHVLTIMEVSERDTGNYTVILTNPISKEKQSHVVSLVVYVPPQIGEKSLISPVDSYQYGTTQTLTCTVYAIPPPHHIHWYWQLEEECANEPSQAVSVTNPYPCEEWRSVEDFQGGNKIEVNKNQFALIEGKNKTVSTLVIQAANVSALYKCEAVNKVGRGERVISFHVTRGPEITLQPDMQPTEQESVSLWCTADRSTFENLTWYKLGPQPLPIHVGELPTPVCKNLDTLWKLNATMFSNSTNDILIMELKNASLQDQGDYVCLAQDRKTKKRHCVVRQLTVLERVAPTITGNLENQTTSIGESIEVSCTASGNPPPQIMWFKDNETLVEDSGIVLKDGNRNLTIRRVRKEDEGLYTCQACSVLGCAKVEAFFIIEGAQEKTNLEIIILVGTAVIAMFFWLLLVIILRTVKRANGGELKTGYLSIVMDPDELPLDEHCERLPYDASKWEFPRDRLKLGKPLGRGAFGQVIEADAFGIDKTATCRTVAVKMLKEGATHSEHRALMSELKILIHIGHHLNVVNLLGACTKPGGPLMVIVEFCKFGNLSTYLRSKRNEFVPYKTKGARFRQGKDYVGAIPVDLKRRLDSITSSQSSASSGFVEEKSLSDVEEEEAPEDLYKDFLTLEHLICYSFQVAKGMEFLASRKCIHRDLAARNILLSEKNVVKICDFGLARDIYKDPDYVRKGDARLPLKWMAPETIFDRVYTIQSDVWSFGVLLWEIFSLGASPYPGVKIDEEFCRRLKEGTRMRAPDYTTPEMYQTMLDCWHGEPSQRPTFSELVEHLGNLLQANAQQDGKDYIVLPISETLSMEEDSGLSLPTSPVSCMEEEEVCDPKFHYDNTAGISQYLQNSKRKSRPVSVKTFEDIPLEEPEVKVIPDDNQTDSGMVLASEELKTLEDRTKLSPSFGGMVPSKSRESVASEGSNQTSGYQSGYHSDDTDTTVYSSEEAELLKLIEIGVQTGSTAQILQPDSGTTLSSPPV
EGFR, sequence (P00533 25-1210, species assumed): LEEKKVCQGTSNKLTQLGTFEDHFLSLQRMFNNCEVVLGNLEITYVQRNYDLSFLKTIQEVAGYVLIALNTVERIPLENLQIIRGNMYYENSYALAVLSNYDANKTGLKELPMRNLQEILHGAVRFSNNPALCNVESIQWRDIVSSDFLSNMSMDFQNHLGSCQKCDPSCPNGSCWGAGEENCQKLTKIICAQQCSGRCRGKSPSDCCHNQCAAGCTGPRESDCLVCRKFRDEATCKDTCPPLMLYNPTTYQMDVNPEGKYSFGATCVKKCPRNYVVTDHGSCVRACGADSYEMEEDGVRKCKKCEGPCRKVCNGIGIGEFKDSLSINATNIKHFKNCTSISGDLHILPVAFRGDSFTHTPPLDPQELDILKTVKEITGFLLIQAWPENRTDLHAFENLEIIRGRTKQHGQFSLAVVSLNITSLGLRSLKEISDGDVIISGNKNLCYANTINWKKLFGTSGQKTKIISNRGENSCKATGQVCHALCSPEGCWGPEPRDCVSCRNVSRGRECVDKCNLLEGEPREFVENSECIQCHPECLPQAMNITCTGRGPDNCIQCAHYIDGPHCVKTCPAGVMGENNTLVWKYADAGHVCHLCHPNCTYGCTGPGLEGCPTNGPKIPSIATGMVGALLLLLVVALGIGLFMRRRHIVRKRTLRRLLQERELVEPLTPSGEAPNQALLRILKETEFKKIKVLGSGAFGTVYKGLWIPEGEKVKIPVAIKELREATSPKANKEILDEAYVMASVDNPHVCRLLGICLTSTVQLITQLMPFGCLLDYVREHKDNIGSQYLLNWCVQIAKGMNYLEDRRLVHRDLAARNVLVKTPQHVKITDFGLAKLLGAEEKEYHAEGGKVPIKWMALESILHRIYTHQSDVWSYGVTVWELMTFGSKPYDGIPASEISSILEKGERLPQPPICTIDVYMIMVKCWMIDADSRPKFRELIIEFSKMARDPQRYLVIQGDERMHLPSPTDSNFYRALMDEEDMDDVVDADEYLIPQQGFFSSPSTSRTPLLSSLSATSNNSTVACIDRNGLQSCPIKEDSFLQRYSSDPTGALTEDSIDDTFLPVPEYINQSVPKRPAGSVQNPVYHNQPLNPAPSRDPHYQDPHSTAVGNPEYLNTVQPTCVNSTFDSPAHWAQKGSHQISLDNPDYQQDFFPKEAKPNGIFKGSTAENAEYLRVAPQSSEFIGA

Which results are given for `COc1cc2c(Oc3ccc4[nH]c(C)cc4c3F)ccnc2cc1OCC1(N)CC1` [Anlotinib]?
IC50 (EGFR): 2 µM; EGFR/VEGFR2 ratio (VEGFR2 [1]): 10,000

With `COCCNCc1ccc(-c2cc3nccc(Oc4ccc(NC(=O)C5(C(=O)Nc6ccc(F)cc6)CC5)cc4F)c3s2)nc1` [Sitravatinib] as the compound, how does the IC50 (EGFR) read?
Its IC50 is 5 µM.

Which IC50 (EGFR) does the source give for `O=C(Nc1cc(Oc2cc(F)c(NC(=O)C3(C(=O)Nc4ccc(F)cc4)CC3)cc2F)ccn1)C1CC1` [Altiratinib] here?
The IC50 was 3.3 µM.

What does the source list for `COC(=O)c1ccc2c(c1)NC(=O)/C2=C(\Nc1ccc(N(C)C(=O)CN2CCN(C)CC2)cc1)c1ccccc1` [Nintedanib]?
VEGFR2 inhibition, Cornea (VEGFR2 [2]): 95.92%; VEGFR2 potency ranking in cornea (VEGFR2 [2]): most potent VEGFR2 inhibitor; VEGFR2 inhibition, Retina (VEGFR2 [3]): 94.33%; VEGFR2 potency ranking in retina (VEGFR2 [3]): most potent VEGFR2 inhibitor

For `O=C(Nc1ccc(OC(F)(F)F)cc1)c1sccc1NCc1ccnc2ccccc12` [OSI-930], which IC50 (EGFR) is on record?
Its IC50 is 10 µM.

What about the EGFR/VEGFR2 ratio (VEGFR2 [1]) of the same compound?
Its EGFR/VEGFR2 ratio is 1000.

For `CNC(=O)c1cc(Oc2ccc(NC(=O)Nc3ccc(Cl)c(C(F)(F)F)c3)c(F)c2)ccn1` [Regorafenib], which IC50 (EGFR) is on record?
The IC50 was 1 µM.

What about the “CE (complexation efficacy)” value [4] of the same compound?
The value was 0.00002.

Which concentration before autoclave ([5]; sample 1-29, MQ water with NaOH, pH 7.4, filtered 0.45 micrometer) does the source give for `Cc1[nH]c(/C=C2\C(=O)Nc3ccccc32)c(C)c1CCC(=O)O` [Orantinib] here?
The concentration before autoclave was 60 µq/ml.

What about the concentration after autoclave ([5]; sample 1-29, pH 7.4) of the same compound?
The concentration after autoclave was 64 µg/mL.

And the concentration before autoclave ([5]; sample 2-29, MQ water with NaOH, pH 7.6, filtered 0.45 micrometer)?
Its concentration before autoclave is 182 µq/ml.

And the concentration after autoclave ([5]; sample 2-29, pH 7.6)?
Its concentration after autoclave is 176 µg/mL.

And the concentration before autoclave ([5]; sample 3-29, MQ water with NaOH, pH 7.8, filtered 0.45 micrometer)?
The concentration before autoclave was 321 µq/ml.

What about the concentration after autoclave ([5]; sample 3-29, pH 7.8) of the same compound?
Its concentration after autoclave is 316 µg/mL.

What about the solubility at 4 h ([6]; water with 0 % (w/v) γ-cyclodextrin, water, 0 % (w/v) γCD, pH 6.3) of the same compound?
Its solubility at 4 h is 0.004 mg/mL (≈ 12.9 µM).

And the solubility at 4 h ([6]; water with 5 % (w/v) γ-cyclodextrin, aqueous with cosolvent or surfactant or cyclodextrin, 5 % (w/v) γCD, pH 6.1)?
Its solubility at 4 h is 0.014 mg/mL (≈ 45.1 µM).

And the solubility at 4 h ([6]; water with 10 % (w/v) γ-cyclodextrin, aqueous with cosolvent or surfactant or cyclodextrin, 10 % (w/v) γCD, pH 6.2)?
The solubility at 4 h was 0.017 mg/mL (≈ 54.8 µM).

What about the solubility at 4 h ([6]; water with 15 % (w/v) γ-cyclodextrin, aqueous with cosolvent or surfactant or cyclodextrin, 15 % (w/v) γCD, pH 6.0) of the same compound?
Its solubility at 4 h is 0.012 mg/mL (≈ 38.7 µM).

Which “pKa (first or only value)” value [7] does the source give for `O=C(O)CC(O)C(=O)O` (centres unmarked) [Malic] here?
Its value is 3.51.

What about the “pKa (second value)” value [7] of the same compound?
Its value is 5.03.

Which “CE (complexation efficacy)” value [4] does the source give for `Cc1ccc(Nc2nccc(N(C)c3ccc4c(C)n(C)nc4c3)n2)cc1S(N)(=O)=O` [Pazopanib] here?
The value was 0.00002.

With `OC[C@H]1O[C@@H]2O[C@H]3[C@H](O)[C@@H](O)[C@@H](O[C@H]4[C@H](O)[C@@H](O)[C@@H](O[C@H]5[C@H](O)[C@@H](O)[C@@H](O[C@H]6[C@H](O)[C@@H](O)[C@@H](O[C@H]7[C@H](O)[C@@H](O)[C@@H](O[C@H]1[C@H](O)[C@H]2O)O[C@@H]7CO)O[C@@H]6CO)O[C@@H]5CO)O[C@@H]4CO)O[C@@H]3CO` [α-cyclodextrin] as the compound, how does the “solubility in pure water” value [8] read?
Its value is 129.5 ± 0.7 mg/mL (≈ 133000 µM).

Which “VEGFR inhibition in the recombinant assays” value [9] does the source give for `CNC(=O)c1ccccc1Sc1ccc2c(/C=C/c3ccccn3)n[nH]c2c1` [Axitinib] here?
Its value is “potent inhibitors for VEGFR”.

What about the “CE (complexation efficacy)” value [4] of the same compound?
Its value is 0.0002.

Which “CE (complexation efficacy)” value [4] does the source give for `CC1(C)CNc2cc(NC(=O)c3cccnc3NCc3ccncc3)ccc21` [Motesanib] here?
Its value is 0.0052.

For `Cc1cc(F)c(Nc2ncnc3cc(OCc4ccccc4)ccc23)cc1O` [ZM 323881, 5-((7-Benzyloxyquinazolin-4-yl)amino)-4-fluoro-2-methylphenol], which IC50 (EGFR) is on record?
The IC50 was 50 µM.

And the EGFR/VEGFR2 ratio (VEGFR2 [1])?
Its EGFR/VEGFR2 ratio is 25,000.

With `CNCc1cc(Oc2ccc3c(ccn3C(=O)Nc3cc(C(F)(F)F)n(C)n3)c2)ncn1` [Acrizanib] as the compound, how does the IC50 (EGFR) read?
Its IC50 is 1 µM.

What about the “fraction of drug dissolved, maximum” value [10] of the same compound?
Its value is “about 7.5%”.

What does the source list for `CC(O)C(=O)O.CC(O)C(=O)O.CN1CCN(c2ccc3nc(-c4c(N)c5c(F)cccc5[nH]c4=O)[nH]c3c2)CC1` [Dovitinib dilactate]?
increase of drug that could be dissolved and suspended ([11]; lactate salt with EDTA and surface active polymers, versus free base): ~10 fold; S in water ([12]; pH 6.5): 0.3 ^b mg/mL

For `OC[C@H]1O[C@@H]2O[C@H]3[C@H](O)[C@@H](O)[C@@H](O[C@H]4[C@H](O)[C@@H](O)[C@@H](O[C@H]5[C@H](O)[C@@H](O)[C@@H](O[C@H]6[C@H](O)[C@@H](O)[C@@H](O[C@H]7[C@H](O)[C@@H](O)[C@@H](O[C@H]8[C@H](O)[C@@H](O)[C@@H](O[C@H]9[C@H](O)[C@@H](O)[C@@H](O[C@H]1[C@H](O)[C@H]2O)O[C@@H]9CO)O[C@@H]8CO)O[C@@H]7CO)O[C@@H]6CO)O[C@@H]5CO)O[C@@H]4CO)O[C@@H]3CO` [γ-cyclodextrin], which γCD in solution ([13]; 10 mg/ml Axi + 50 mg/ml γCD + Acetic acid (1:1 molar), pH 3.5) is on record?
Its γCD in solution is 24 mg/mL.

What about the γCD in solution ([13]; 10 mg/ml Axi + 50 mg/ml γCD + Ascorbic acid (1:1 molar), pH 3.1) of the same compound?
The γCD in solution was 27 mg/mL.

What about the γCD in solution ([13]; 10 mg/ml Axi + 50 mg/ml γCD + Hydrochloric acid (1:1 molar), pH 3.2) of the same compound?
The γCD in solution was 21 mg/mL.

What about the γCD in solution ([13]; 10 mg/ml Axi + 50 mg/ml γCD + Lactic acid (1:1 molar), pH 2.8) of the same compound?
The γCD in solution was 24 mg/mL.

And the γCD in solution ([13]; 10 mg/ml Axi + 50 mg/ml γCD + Maleic acid (1:1 molar), pH 2.3)?
The γCD in solution was 25 mg/mL.

And the γCD in solution ([13]; 10 mg/ml Axi + 50 mg/ml γCD + Malic acid (1:1 molar), pH 3.0)?
Its γCD in solution is 24 mg/mL.

And the γCD in solution ([13]; 10 mg/ml Axi + 50 mg/ml γCD + Tartaric acid (1:1 molar), pH 2.7)?
The γCD in solution was 22 mg/mL.

What about the γCD in solution ([13]; 10 mg/ml Axi + 50 mg/ml γCD, no acid, pH 9.1) of the same compound?
The γCD in solution was 22 mg/mL.

And the “solubility in pure water” value [8]?
Its value is 249.2 ± 0.2 mg/mL (≈ 192000 µM).

And the “solubility in aqueous 3% (w/v) γ-cyclodextrin suspension saturated with hydrocortisone” value [8]?
The value was 13 mg/mL.

And the “solubility in pure water at room temperature” value [8]?
Its value is “about 250 mg/ml”.

What does the source list for `COc1cc2nccc(Oc3ccc(NC(=O)C4(C(=O)Nc5ccc(F)cc5)CC4)cc3)c2cc1OC` [Cabozantinib]?
VEGFR2 inhibition, Cornea (VEGFR2 [2]): 90.52%; EGFR inhibition in the recombinant assays [14]: do not inhibit EGFR; VEGFR2 inhibition, Retina (VEGFR2 [3]): 74.82%

For Cediranib maleate, which “solubility compared with the free base” value [12] is on record?
The value was “significant greater solubility than the free base”.

Which results are given for `COc1cc2c(Oc3ccc4[nH]c(C)cc4c3F)ncnc2cc1OCCCN1CCCC1` [Cediranib]?
diameter of dissolved drug/γ-cyclodextrin complex nanoparticles [11, 16]: below 200 nm; diameter of solid drug/γ-cyclodextrin complex microparticles [11, 16]: less than 10 µm; fraction of drug dissolved (free drug, complexes or complex nanoparticles) [11, 16]: about 13%; fraction of drug in solid drug/γ-cyclodextrin complex microparticles ([11]; γ-cyclodextrin eye drop formulations, from concentration before and after filtration): About 87%; CE (complexation efficacy) [4]: 0.0578

With `COc1cc2nccc(Oc3ccc(NC(=O)Nc4ccc(F)cc4F)c(F)c3)c2cc1OC` [Ki8751] as the compound, how does the IC50 (EGFR) read?
Its IC50 is 10 µM.

And the EGFR/VEGFR2 ratio (VEGFR2 [1])?
The EGFR/VEGFR2 ratio was 2500.

And the IC50 (VEGFR2 [15])?
Its IC50 is 0.004 µM.

What does the source list for `CNC(=O)c1c(C)oc2cc(Oc3ncnc4cc(OC)c(OC)cc34)ccc12` [Fruquintinib]?
IC50 (EGFR): 30 µM; EGFR/VEGFR2 ratio (VEGFR2 [1]): 857

For `O=C(Nc1cccc(C(F)(F)F)c1)c1cccc2cc(Oc3cc(CO)ncn3)ccc12` [BFH772], which IC50 (EGFR) is on record?
Its IC50 is 10 µM.

What about the EGFR/VEGFR2 ratio (VEGFR2 [1]) of the same compound?
Its EGFR/VEGFR2 ratio is 3333.

Reference: patent publication US20230263907A1, “PREPARATION OF SOLID CYCLODEXTRIN COMPLEXES FOR OPHTHALMIC ACTIVE PHARMACEUTICAL INGREDIENT DELIVERY” (OCULIS SA, priority 2020, published 2023)
